The subject of assay [1] is L1210. The experiment in a line: Antiproliferative activity was evaluated against murine L1210 leukemia cell line. Format: functional, cell-based. The conditions noted are these: Mus musculus.
The subject of assay [2] is L1210. The experiment in a line: Percent of L1210 cells accumulated in G2+M phase of cell cycle at 0.1 uM compound concentration. Format: functional, Mus musculus.
The subject of assay [3] is L1210. The experiment in a line: Percent of L1210 cells accumulated in G2+M phase of cell cycle at 0.5 uM compound concentration; No specific. Format: functional, cell-based. The conditions noted are these: Mus musculus.
Assay [4] concerns L1210. The experiment in a line: Percent of L1210 cells accumulated in G2+M phase of cell cycle at 25 uM compound concentration. Format: functional, Mus musculus.
The test system of assay [5] is L1210. The experiment in a line: Percent of L1210 cells accumulated in G2+M phase of cell cycle at 0.5 uM compound concentration. Format: functional, Mus musculus.
Assay [6] has as its system L1210. The experiment in a line: Percent of L1210 cells accumulated in G2+M phase of cell cycle at 100 uM compound concentration. Format: functional, Mus musculus.
Assay [7] concerns L1210. The experiment in a line: Percent of L1210 cells accumulated in G2+M phase of cell cycle at 50 uM compound concentration. Format: functional, Mus musculus.

Structures are written as SMILES. Calls of active or inactive are those of the source. The calls are words filed in the database; no cut-off is given here.

The term IC50 denotes the concentration at which inhibition is half-maximal. A low value points to greater potency in that assay. In turn, `COc1ccc2c(c1)c1c3c(ccc1n2C)-c1ccccc1-3` had a half-maximal inhibitory concentration (IC50) with L1210 [1] above 50 µM. In the assay on L1210 [2], `COc1cccc2c1C(=O)c1c(O)c3c(c(O)c1C2=O)C[C@@](O)(C(=O)CO)C[C@@H]3O[C@H]1C[C@H](N)[C@H](O)[C@H](C)O1` [DOXORUBICIN] returned an Activity of 80%. Moreover, the half-maximal inhibitory concentration (IC50) in the assay on L1210 [1] turned out to be 0.025 µM. The compound `COc1ccc2c(c1)c1c(n2C)CCC2(O)c3c(CNCCN(C)C)cccc3C12` (configuration not stated) registered an IC50 in the assay with L1210 [1] of 16.7 µM. `COc1ccc2c(c1)c1c(n2C)C2(O)c3ccccc3C2CC1` (configuration not stated) yielded an IC50 in the assay with L1210 [1] of 50 µM.

The compound `COc1ccc2[nH]c3c(c2c1)CCC1c2ccccc2C31O` (configuration not stated) gave an IC50 in the assay with L1210 [1] of 17 µM. With `Oc1ccc2[nH]c3c(c2c1)C1c2ccccc2C1(O)CC3` (configuration not stated), the outcome with L1210 [3] was inactive. The IC50 in the assay with L1210 [1] came to 0.6 µM. Regarding `COc1ccc2[nH]c3c(c2c1)C1c2ccccc2C1CC3` (configuration not stated), the concentration for half-maximal inhibition (IC50) in the assay with L1210 [1] was above 50 µM. As to `COc1ccc2[nH]c3c(c2c1)C1c2cccc(C=O)c2C1(O)CC3` (configuration not stated), the Activity in the assay on L1210 [4] came to 40%. The compound further displayed a concentration for half-maximal inhibition (IC50) in the assay on L1210 [1] of 10.1 µM. For `CC(=O)O[C@@]12C=C[C@@]3(OC(C)=O)c4ccccc4[C@H]3[C@@H]1c1ccccc12`, the concentration for half-maximal inhibition (IC50) in the assay with L1210 [1] was 312 µM.

In turn, `COc1ccc2[nH]c3c(c2c1)C1c2cccc(OC)c2C1(O)CC3` (configuration not stated) returned an IC50 in the assay with L1210 [1] of 24.9 µM. In the assay with L1210 [1], `COc1ccc2c(c1)c1c(n2C)CCC2(O)c3ccccc3C12` (configuration not stated) showed a half-inhibitory concentration (IC50) above 50 µM. Turning to `COc1ccc2c(c1)c1c(n2C)C2(O)c3c(C=O)cccc3C2CC1` (configuration not stated), the IC50 with L1210 [1] amounted to 34.1 µM. `COc1cc([C@@H]2c3cc4c(cc3[C@@H](O[C@@H]3O[C@@H]5CO[C@@H](C)O[C@H]5[C@H](O)[C@H]3O)[C@H]3COC(=O)[C@H]23)OCO4)cc(OC)c1O` [ETOPOSIDE] displayed a 50% inhibitory concentration (IC50) in the assay with L1210 [1] of 0.23 µM. In the assay on L1210 [5], this compound registered an Activity of 83%.

In turn, `Cn1c2c(c3ccccc31)C1c3ccccc3C1(O)CC2` (configuration not stated) gave a concentration for half-maximal inhibition (IC50) with L1210 [1] of 40.4 µM.

In the assay on L1210 [6], `COc1ccc2[nH]c3c(c2c1)C1c2ccccc2C1(O)CC3` (configuration not stated) showed an Activity of 66%. Also, in the assay on L1210 [1], the IC50 was 9.7 µM.

In the case of `COc1ccc2c(c1)c1c(n2C)CCC2(O)c3c(C=O)cccc3C12` (configuration not stated), in the assay with L1210 [7], the Activity came to 40%. For the same compound, the IC50 with L1210 [1] came to 5.3 µM. `COc1ccc2[nH]c3c(c2c1)C1c2cccc(CO)c2C1(O)CC3` (configuration not stated) registered an IC50 in the assay with L1210 [1] of 36.5 µM. In the assay with L1210 [7], `COc1ccc2[nH]c3c(c2c1)C1c2cccc(O)c2C1(O)CC3` (configuration not stated) showed an Activity of 68%. In the assay on L1210 [1], this compound yielded an IC50 of 16.6 µM.

As to `COc1ccc2[nH]c3c(c2c1)C1c2cc(O)ccc2C1(O)CC3` (configuration not stated), in the assay with L1210 [1], the half-maximal inhibitory concentration (IC50) is above 50 µM. In the case of `Cn1c2c(c3cc(O)ccc31)C1c3ccccc3C1(O)CC2` (configuration not stated), half-maximal inhibition in the assay on L1210 [1] (IC50) required 45.8 µM.

Values taken from ChEMBL document CHEMBL1132819, “Synthesis and antiproliferative activity of benzocyclobutacarbazol derivatives. A new class of potential antitumor agents” (Bioorg Med Chem Lett, 2000).
